Measured values taken from patent publication US9527859B2, “Amidopyridine derivative and use thereof” (Mitsubishi Tanabe Pharma Corporation, priority 2012, dated 2016).

System: Salmonella typhimurium TA104 strain
Format: cell-based
Experimental: Genotoxicity Test Using Salmonella typhimurium TA104 Strain Carrying a Reporter Gene Under the Control of DNA Repair Enzyme recN (Vitotox Test)
To prepare agents for stock of tester strain, Amp solution (50 mg/mL) and Tet solution (10 mg/mL) were prepared, and then LB-agar plate (35 mg/mL+Amp (100 μg/mL)+Tet ([…])) was prepared, and LB medium (20 mg/mL+Amp (100 μg/mL)+Tet (20 μg/mL)) was prepared. Then, LB medium for pre-incubation (10 mg/mL), LB medium for test (4 mg/mL) and enhancer reagent (50 mg (CaCl2.H2O)/mL) were prepared.
Freezing stock of bacterial strain was thawed to be streaked on LB-agar plate, and incubated in an incubator (TITEC, BIO-SHAKER BR-15) at 37° C. overnight. […]
A solution for positive control was prepared as below. […] When the test compound was completely dissolved, the highest concentration as prepared was determined to be a highest dose, and when a precipitate was found, a homogeneous suspension which was able to be pipetted was determined to be a highest dose.
After a fluorescent and luminescent photometer (Thermo Labsystem, Fluoroskan Ascent FL), plate and medium for test were set up, Genox and Cytox reaction solutions were prepared as below. Dilution factor as well as requisite amounts for medium for test, pre-incubation strain solution, Enhancer Reagent and S9 mix were calculated so that OD590 was set as about 0.03 for each culture solution. […]

`Nc1cnc(N2CCC(O)CC2)c(C2CC2)c1` [1-(5-amino-3-cyclopropylpyridin-2-yl)piperidin-4-ol] was tested, and the “Genotoxicity (Vitotox test)” value was “negative”.
